According to publication PMC8459971, “Evaluation of the hepatotoxicity of the novel GPR40 (FFAR1) agonist CPL207280 in the rat and monkey” (PLoS ONE, 2021):
Where two headings read alike, the source gives them in different places. Marks after values point to notes of the source that are not given here.

Columns and labels:
[1] = cited from earlier work
[2] = summary table, literature; cited from earlier work
BSEP = BSEP (Homo sapiens, UniProt O95342); assay: biochemical
Procedure: In the vesicular transport inhibition assay (for BSEP, MRP) compounds were incubated with membrane vesicle preparations and the probe substrate. Incubations were carried out in the presence of 4 mM ATP or AMP to distinguish between transporter-mediated uptake and passive diffusion into the vesicles. For MRP2 and MRP3, reactions were carried out in the presence of 2 mM glutathione. Compounds were added to the reaction mixture in 0.75 μL of solvent (1% of the final incubation volume). […] Reactions were initiated by the addition of 25 μL of 12 mM MgATP (or 12 mM AMP in assay buffer as a background control) and preincubated separately. Reactions were quenched by the addition of 200 μL of ice-cold washing buffer and immediate filtration via glass fiber filters mounted on a 96-well plate (filter plate). The filters were washed (5 × 200 μL of ice-cold washing buffer), dried, and the amount of substrate inside the filtered vesicles was determined by liquid scintillation counting.

[3] = cited from earlier work; for AUC24h (Mean) / Cmax (Mean): rat; for exposure in plasma (AUC): rats
[4] = 14-day toxicology study in rats

BSEP, sequence (O95342 whole entry): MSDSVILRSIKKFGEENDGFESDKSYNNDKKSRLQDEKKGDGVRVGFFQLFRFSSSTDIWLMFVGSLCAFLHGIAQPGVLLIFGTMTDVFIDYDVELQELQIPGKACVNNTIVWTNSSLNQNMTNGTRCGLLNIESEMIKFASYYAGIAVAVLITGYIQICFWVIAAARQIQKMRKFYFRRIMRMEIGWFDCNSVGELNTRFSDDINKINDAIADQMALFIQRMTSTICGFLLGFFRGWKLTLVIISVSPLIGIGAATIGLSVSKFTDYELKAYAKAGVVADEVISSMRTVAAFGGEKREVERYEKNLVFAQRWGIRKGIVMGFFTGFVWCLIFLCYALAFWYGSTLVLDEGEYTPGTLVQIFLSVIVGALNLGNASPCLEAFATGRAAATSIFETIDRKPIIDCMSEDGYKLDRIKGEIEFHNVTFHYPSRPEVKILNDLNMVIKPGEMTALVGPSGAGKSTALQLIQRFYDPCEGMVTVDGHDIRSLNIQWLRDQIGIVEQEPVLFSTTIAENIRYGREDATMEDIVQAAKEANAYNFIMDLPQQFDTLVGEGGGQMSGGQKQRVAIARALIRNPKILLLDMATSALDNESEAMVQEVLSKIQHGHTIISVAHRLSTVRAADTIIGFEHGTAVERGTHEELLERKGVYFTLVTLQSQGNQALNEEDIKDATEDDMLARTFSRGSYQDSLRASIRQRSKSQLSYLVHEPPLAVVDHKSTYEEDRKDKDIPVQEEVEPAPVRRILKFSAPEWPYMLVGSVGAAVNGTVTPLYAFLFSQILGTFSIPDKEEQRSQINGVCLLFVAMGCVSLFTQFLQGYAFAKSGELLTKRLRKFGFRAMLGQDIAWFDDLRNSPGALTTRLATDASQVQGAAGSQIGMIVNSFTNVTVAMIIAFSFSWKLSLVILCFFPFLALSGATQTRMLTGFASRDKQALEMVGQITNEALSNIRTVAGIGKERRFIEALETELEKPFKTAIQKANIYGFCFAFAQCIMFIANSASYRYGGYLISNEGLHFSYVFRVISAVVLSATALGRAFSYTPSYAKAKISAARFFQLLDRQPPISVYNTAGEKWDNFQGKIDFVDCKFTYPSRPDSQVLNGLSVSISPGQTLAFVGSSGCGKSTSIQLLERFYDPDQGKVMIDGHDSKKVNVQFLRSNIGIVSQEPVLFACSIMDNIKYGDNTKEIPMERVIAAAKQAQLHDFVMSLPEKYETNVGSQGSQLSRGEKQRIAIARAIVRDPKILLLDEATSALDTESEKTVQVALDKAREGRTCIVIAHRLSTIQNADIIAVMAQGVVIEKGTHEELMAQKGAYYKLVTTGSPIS

In the case of `Cc1cc(OCCCS(C)(=O)=O)cc(C)c1-c1cccc(COc2ccc3c(c2)OC[C@H]3CC(=O)O)c1` [TAK-875, fasiglifam, reference compound], the “plasma protein binding (PPB)” value [1] is listed as over 99.4%, the “Acyl glucuronide presence in human hepatocytes” value [2] is listed as “Yes” and the IC50 (BSEP) is listed as 47.3 µM. The “effect on ALT” value [3, 4] was “significantly increased ALT at doses of 200 and 600 mg/kg after seven days”, the “effect on TBA and T-BIL” value [3, 4] was “increased TBA and T-BIL levels at a dose of 600 mg/kg” and the “AUC24h (Mean)” value ([3]; Day 1, Dose 200 mg/kg/day) was 1210000* ng x hr/mL. The “Cmax (Mean)” value ([3]; Day 1, Dose 200 mg/kg/day) was 296000* ng/ml, the “AUC24h (Mean)” value ([3]; Day 1, Dose 600 mg/kg/day) was 2010000* ng x hr/mL and the “Cmax (Mean)” value ([3]; Day 1, Dose 600 mg/kg/day) was 465000* ng/ml. For the same molecule, the “AUC24h (Mean)” value ([3]; Day 14, Dose 200 mg/kg/day) was 3740000* ng x hr/mL, the “Cmax (Mean)” value ([3]; Day 14, Dose 200 mg/kg/day) was 271000* ng/ml and the “AUC24h (Mean)” value ([3]; Day 14, Dose 600 mg/kg/day) was 6610000* ng x hr/mL. The “Cmax (Mean)” value ([3]; Day 14, Dose 600 mg/kg/day) was 383000* ng/ml, the “exposure in plasma (AUC)” value ([3]; 200 mg/kg, day 1) was 1210 µg·h/mL and the “exposure in plasma (AUC)” value ([3]; 200 mg/kg, day 14) was 3740 µg·h/mL. The “exposure in plasma (AUC)” value ([3]; 600 mg/kg, day 1) was 2010 µg·h/mL, the “exposure in plasma (AUC)” value ([3]; 600 mg/kg, day 14) was 6610 µg·h/mL and the “Accumulation in rat plasma after repeat dose” value ([3]; summary table) was “Yes”. The “Propensity to elevate bile acids and bilirubin in plasma” value ([3]; summary table) was “Yes”.
